# Measured values from paper PMC12118597 (Science Advances, 2025).
# Values joined by “and” are separate entries in the source; they are usually repeats but may differ in a detail not shown here. Equal entries are not always repeated. Where two headings read alike, the source gives them in different places.
# Molecular target: SARS-CoV-2 NSP3 macrodomain (Mac1) (Severe acute respiratory syndrome coronavirus 2, UniProt P0DTD1)
# Type: binding
# [1] = DMSO background map; event 1; soak concentration 10 mM
# [2] = DMSO background map; soak concentration 10 mM
# [3] = PanDDA background density correction factor
# [4] = TRUE = ligand-bound crystal structure obtained (PDB code given)
# [5] = crystal soak concentration 20 mM, DMSO background map
# [6] = crystal soak concentration 20 mM, DMSO background map, event 1
# [7] = crystal soak concentration 20 mM, P43 crystals
# [8] = crystal soak, P43 crystals; soak concentration 10 mM
# [9] = crystal soak, P43 crystals; soak concentration 10 mM for the hits shown
# [10] = ligand conformations modeled in the crystal structure
# [11] = refined crystallographic occupancy
# [12] = site of Mac1 occupied in the X-ray crystal structure (Adenosine or Distal)
# [13] = PanDDA background density correction, 1-BDC
# [14] = soak concentration 10 mM, DMSO background map
# [15] = soak concentration 10 mM, P43 crystals
# [16] = soak concentration 3 mM, DMSO background map
# [17] = soak concentration 3 mM, P43 crystals
smiles,measurement,setting,value
O=C(O)C1CCCN1S(=O)(=O)c1cccc2nsnc12 (stereo not shown) [AVI-2],Occupancy difference (refined_occupancy - 2*(1-BDC)),,10
same,"PanDDA run, DMSO background map: 1-BDC",[1],0.2
same,"PanDDA run, DMSO background map: Hit",[2],TRUE
same,"PanDDA run, DMSO background map: Modeled",[2],TRUE
same,1-BDC,[3],0.2
same,X-ray crystal structure,[4],TRUE
same,"Hit (PanDDA run, DMSO background map)",[5],TRUE
same,"1-BDC (PanDDA run, DMSO background map)",[6],0.22
same,"Hit (PanDDA run, overall)",[7],TRUE
same,"Modeling comment (PanDDA run, overall)",[7],"Duplicate, not modeled"
same,"PanDDA run, overall: Modeled",[8],TRUE
same,"PanDDA run, overall: Hit",[9],TRUE
same,Total number of conformations,[10],1
same,2*(1-BDC) (%),occupancy estimate from PanDDA,40%
same,Refined ligand occupancy (%),[11],50%
same,Binding site,[12],Adenosine
c1ccc(-n2nnnc2CSc2nnc(NC3CC3)s2)cc1 [AVI-286],Occupancy difference (refined_occupancy - 2*(1-BDC)),,0
same,"PanDDA run, DMSO background map: 1-BDC",[1],0.11
same,"PanDDA run, DMSO background map: Hit",[2],TRUE
same,"PanDDA run, DMSO background map: Modeled",[2],TRUE
same,1-BDC,[3],0.11
same,X-ray crystal structure,[4],TRUE
same,"PanDDA run, overall: Modeled",[8],TRUE
same,"PanDDA run, overall: Hit",[9],TRUE
same,Total number of conformations,[10],1
same,2*(1-BDC) (%),occupancy estimate from PanDDA,22%
same,Refined ligand occupancy (%),[11],22%
same,Binding site,[12],Distal
O=C(O)C(c1ccccc1)n1sc2ccccc2c1=O (stereo not shown) [AVI-288],"PanDDA run, DMSO background map: 1-BDC",[1],0.26
same,"PanDDA run, DMSO background map: Hit",[2],TRUE
same,1-BDC,[13],0.37
same,X-ray crystal structure,[4],TRUE
same,"Hit (PanDDA run, DMSO background map)",[5],TRUE
same,"Modeled (PanDDA run, DMSO background map)",[5],TRUE
same,"1-BDC (PanDDA run, DMSO background map)",[6],0.37
same,"Hit (PanDDA run, overall)",[7],TRUE
same,"Modeled (PanDDA run, overall)",[7],TRUE
same,"PanDDA run, overall: Modeling comment",[8],"Duplicate, not modeled"
same,"PanDDA run, overall: Hit",[9],TRUE
same,Refined ligand occupancy (%),crystallographic refinement,74%
same,2*(1-BDC) (%),occupancy estimate from PanDDA,74%
same,Binding site,[12],Adenosine
CC(C)n1nnnc1SCc1c(C(=O)O)sc2cccc(F)c12 [AVI-291],"PanDDA run, DMSO background map: 1-BDC",[1],0.25
same,"PanDDA run, DMSO background map: Hit",[2],TRUE
same,1-BDC,[13],0.34
same,X-ray crystal structure,[4],TRUE
same,"Hit (PanDDA run, DMSO background map)",[5],TRUE
same,"Modeled (PanDDA run, DMSO background map)",[5],TRUE
same,"1-BDC (PanDDA run, DMSO background map)",[6],0.34
same,"Hit (PanDDA run, overall)",[7],TRUE
same,"Modeled (PanDDA run, overall)",[7],TRUE
same,"Modeling comment (PanDDA run, overall)",[7],"Second ligand conformation, not modeled, DMSO x2"
same,"PanDDA run, overall: Modeling comment",[8],"Duplicate, not modeled"
same,"PanDDA run, overall: Hit",[9],TRUE
same,Refined ligand occupancy (%),crystallographic refinement,68%
same,2*(1-BDC) (%),occupancy estimate from PanDDA,68%
same,Binding site,[12],Adenosine
Nc1nnc(SCCn2c(=O)oc3ccccc32)s1 [AVI-296],Occupancy difference (refined_occupancy - 2*(1-BDC)),,0
same,"PanDDA run, DMSO background map: 1-BDC",[1],0.06
same,"PanDDA run, DMSO background map: Hit",[2],TRUE
same,"PanDDA run, DMSO background map: Modeled",[2],TRUE
same,1-BDC,[3],0.06
same,X-ray crystal structure,[4],TRUE
same,"PanDDA run, overall: Modeled",[8],TRUE
same,"PanDDA run, overall: Hit",[9],TRUE
same,Total number of conformations,[10],1
same,2*(1-BDC) (%),occupancy estimate from PanDDA,12%
same,Refined ligand occupancy (%),[11],12%
same,Binding site,[12],Distal
CCn1c(C)nnc1Sc1cnc2ccccc2n1 [AVI-297],"PanDDA run, DMSO background map: 1-BDC",[1],0.05
same,"PanDDA run, DMSO background map: Hit",[2],TRUE
same,"PanDDA run, overall: Modeling comment",[8],"Only density for quinoxaline, not modeled"
same,"PanDDA run, overall: Hit",[9],TRUE
CC1CC(C(=O)O)CCN1C(=O)c1ccc2c(c1)OCC(=O)N2 (stereo not shown) [AVI-303],Occupancy difference (refined_occupancy - 2*(1-BDC)),,0
same,"PanDDA run, DMSO background map: 1-BDC",[1],0.13
same,"PanDDA run, DMSO background map: Hit",[2],TRUE
same,"PanDDA run, DMSO background map: Modeled",[2],TRUE
same,1-BDC,[3],0.13
same,X-ray crystal structure,[4],TRUE
same,"Hit (PanDDA run, DMSO background map)",[5],TRUE
same,"1-BDC (PanDDA run, DMSO background map)",[6],0.19
same,"Hit (PanDDA run, overall)",[7],TRUE
same,"Modeling comment (PanDDA run, overall)",[7],"Duplicate, not modeled"
same,"PanDDA run, overall: Modeled",[8],TRUE
same,"PanDDA run, overall: Hit",[9],TRUE
same,Total number of conformations,[10],1
same,2*(1-BDC) (%),occupancy estimate from PanDDA,26%
same,Refined ligand occupancy (%),[11],26%
same,Binding site,[12],Adenosine
COc1ccc(NC(=O)NC2CCCC2)cc1-n1nnnc1C [AVI-311],"Hit (PanDDA run, DMSO background map)",[5],TRUE
same,"1-BDC (PanDDA run, DMSO background map)",[6],0.12
same,"Hit (PanDDA run, overall)",[7],TRUE
same,"Modeling comment (PanDDA run, overall)",[7],"Weak density, not modeled"
same,"PanDDA run, DMSO background map: 1-BDC",[14],0.09
same,"PanDDA run, DMSO background map: Hit",[14],TRUE
same,"PanDDA run, overall: Hit",[15],TRUE
same,"PanDDA run, overall: Modeling comment",[15],"Weak density, not modeled"
O=C(Nc1ccsc1C(=O)O)c1ccc2c(c1)OCO2 [AVI-316],Occupancy difference (refined_occupancy - 2*(1-BDC)),,0
same,1-BDC,[3],0.07
same,X-ray crystal structure,[4],TRUE
same,"Hit (PanDDA run, DMSO background map)",[5],TRUE
same,"1-BDC (PanDDA run, DMSO background map)",[6],0.12
same,"Hit (PanDDA run, overall)",[7],TRUE
same,"Modeling comment (PanDDA run, overall)",[7],"Duplicate, not modeled"
same,Total number of conformations,[10],1
same,2*(1-BDC) (%),occupancy estimate from PanDDA,14%
same,Refined ligand occupancy (%),[11],14%
same,Binding site,[12],Adenosine
same,"PanDDA run, DMSO background map: 1-BDC",[14],0.07
same,"PanDDA run, DMSO background map: Hit",[14],TRUE
same,"PanDDA run, DMSO background map: Modeled",[14],TRUE
same,"PanDDA run, overall: Hit",[15],TRUE
same,"PanDDA run, overall: Modeled",[15],TRUE
Cc1sc2ncnc(Sc3ccccc3C(=O)O)c2c1C [AVI-317],Occupancy difference (refined_occupancy - 2*(1-BDC)),,30
same,1-BDC,[3],0.15
same,X-ray crystal structure,[4],TRUE
same,Total number of conformations,[10],2
same,2*(1-BDC) (%),occupancy estimate from PanDDA,30%
same,Refined ligand occupancy (%),[11],60%
same,Binding site,[12],Adenosine
same,"PanDDA run, DMSO background map: 1-BDC",[14],0.17 and 0.15
same,"PanDDA run, DMSO background map: Hit",[14],TRUE
same,"PanDDA run, DMSO background map: Modeled",[14],TRUE
same,"PanDDA run, overall: Hit",[15],TRUE
same,"PanDDA run, overall: Modeled",[15],TRUE
same,"PanDDA run, overall: Modeling comment",[15],"Duplicate, not modeled"
Cc1c(C)n(Cc2ccccc2)c2ncnc(N)c12 [AVI-321],Occupancy difference (refined_occupancy - 2*(1-BDC)),,0
same,1-BDC,[3],0.08
same,X-ray crystal structure,[4],TRUE
same,Total number of conformations,[10],1
same,2*(1-BDC) (%),occupancy estimate from PanDDA,16%
same,Refined ligand occupancy (%),[11],16%
same,Binding site,[12],Adenosine
same,"PanDDA run, DMSO background map: 1-BDC",[16],0.08
same,"PanDDA run, DMSO background map: Hit",[16],TRUE
same,"PanDDA run, DMSO background map: Modeled",[16],TRUE
same,"PanDDA run, overall: Hit",[17],TRUE
same,"PanDDA run, overall: Modeled",[17],TRUE
Cc1cc2c(=O)n(CCN3C(=O)c4ccccc4S3(=O)=O)nnc2s1 [AVI-341],Occupancy difference (refined_occupancy - 2*(1-BDC)),,14
same,1-BDC,[3],0.18
same,X-ray crystal structure,[4],TRUE
same,"Hit (PanDDA run, DMSO background map)",[5],TRUE
same,"1-BDC (PanDDA run, DMSO background map)",[6],0.19
same,"Hit (PanDDA run, overall)",[7],TRUE
same,"Modeling comment (PanDDA run, overall)",[7],"Duplicate, not modeled"
same,Total number of conformations,[10],1
same,2*(1-BDC) (%),occupancy estimate from PanDDA,36%
same,Refined ligand occupancy (%),[11],50%
same,Binding site,[12],Adenosine
same,"PanDDA run, DMSO background map: 1-BDC",[14],0.18
same,"PanDDA run, DMSO background map: Hit",[14],TRUE
same,"PanDDA run, DMSO background map: Modeled",[14],TRUE
same,"PanDDA run, overall: Hit",[15],TRUE
same,"PanDDA run, overall: Modeled",[15],TRUE
